In patent US11214805B2, “Targeted nanocarriers for the administration of immunosuppressive agents” (MUSC FOUNDATION FOR RESEARCH DEVELOPMENT, priority 2014, dated 2022):

How the values were obtained:
[1] = test system: MHC I; assay: Western blot of MHC I in lysates of HUVEC treated with pro-inflammatory cytokine cocktail; assay type: cell-based, Human; settings: IL-1β, INFγ, TNFα cocktail; 10 or 100 ng/mL
Description: Cells were then lysed using mammalian protein extraction reagent (Pierce, Ill.) supplemented with Halt Protease and Phosphatase Inhibitor Cocktails. Lysates were centrifuged at 10,000 rpm for 15 minutes. All western blot reagents were purchased from Bio-Rad (CA) unless specified. The protein concentration of each lysate was determined via Bradford calorimetric Assay (Thermo Scientific, PA; 232225), and 1.6 μg of protein from each whole cell lysate was added to a 4-20% precast gel and subjected to SDS-page electrophoresis. Protein was transferred to a PVDF membrane by semi-dry transfer, where it was stained with anti-MHC class I antibody (W6) and blocked overnight with TBS-T (Tris-Buffered Saline-Tween 20) containing 5% nonfat dry milk and 0.5% BSA. An appropriate HRP-conjugated secondary antibody was added to fresh block solution at a 1:1000 dilution to incubate for 1 hour at room temperature. The protein band was then detected by enhanced chemiluminescence (ECL).

[2] = test system: transplanted tracheas (chronic rejection); settings: graft stored 4 hrs at 4° C. in UW solution with additive; harvested 28 days after transplantation
Description: Twenty eight days later transplanted tracheas were harvested and assessed for the degree of chronic rejection.

SMILES: CO[C@H]1C[C@@H]2CC[C@@H](C)[C@@](O)(O2)C(=O)C(=O)N2CCCC[C@H]2C(=O)O[C@H]([C@H](C)C[C@@H]2CC[C@@H](O)[C@H](OC)C2)CC(=O)[C@H](C)/C=C(\C)[C@@H](O)[C@@H](OC)C(=O)[C@H](C)C[C@H](C)/C=C/C=C/C=C/1C [free rapamycin, rapamycin]
- level of MHC I expression in HUVEC [1]: able to down regulate
- degree of chronic rejection (fibrosis, inflammation, epithelium) as compared to UW alone [2]: reduced fibrosis, inflammation and preserved normal pseudo stratified respiratory epithelium
